Assay results reported in patent publication US9284325B2, “Spectinamides as anti-tuberculosis agents” (UNIVERSITY OF TENNESSEE RESEARCH FOUNDATION, priority 2009, dated 2016).
Structures can show the parent of a compound that is named as a salt.

What was measured:
M. tuberculosis H37Rv = assay: MIC determination by microbroth dilution, anti-tuberculosis activity; format: cell-based, Mycobacterium tuberculosis; conditions: Mycobacterium tuberculosis, H37RV, 168 h; read-out: MIC
[1] = test system: Strep. pneumoniae DAW27 or strain R6; assay: MIC determination by microbroth dilution; format: cell-based, Streptococcus pneumoniae; conditions: Streptococcus pneumoniae; Strep. pneumoniae DAW27 or strain R6 (for 1443-1544); read-out: MIC S. pneumoniae
E. faecalis ATCC 33186 = assay: MIC determination by microbroth dilution; format: cell-based, Enterococcus faecalis; conditions: Enterococcus faecalis, ATCC33186
[2] = test system: Strenotrophomonas maltophilia ATCC 13637; assay: MIC determination by microbroth dilution; format: cell-based
[3] = test system: Strep. pyogenes ATCC 700294; assay: MIC determination by microbroth dilution; format: cell-based, Streptococcus pyogenes; conditions: Streptococcus pyogenes, ATCC700294, read-out: MIC S. pyogenes
B. anthracis Sterne 34F2 = assay: microbe, parasite or virus in culture; format: cell-based, Bacillus anthracis; conditions: Bacillus anthracis, STERNE34F2, read-out: MIC B. anthracis 34F2
[4] = test system: Burkholderia cepacia ATCC 25416; assay: MIC determination by microbroth dilution; format: cell-based; conditions: ATCC25416, read-out: MIC B. cepcia
[5] = test system: S. aureus 8325 or strain ATCC 29213; assay: MIC determination by microbroth dilution; format: cell-based, Staphylococcus aureus; conditions: Staphylococcus aureus, ATCC29213; S. aureus 8325 or strain ATCC 29213 (for 1471-1544)
[6] = test system: Acinetobacter baumannii ATCC 19606; assay: MIC determination by microbroth dilution; format: cell-based; conditions: ATCC19606
P. aeruginosa PAO1 = assay: MIC determination by microbroth dilution; format: cell-based, Pseudomonas aeruginosa; conditions: Pseudomonas aeruginosa
[7] = test system: Proteus vulgaris ATCC 33420; assay: MIC determination by microbroth dilution; format: cell-based; conditions: ATCC33420
E. coli K12 ΔtolC = assay: microbe, parasite or virus in culture; format: cell-based; conditions: Escherichia coli, read-out: MIC E. coli K12 ΔtolC
[8] = test system: Proteus mirabilis ATCC 25933; assay: MIC determination by microbroth dilution; format: cell-based; conditions: ATCC25933
[9] = test system: Klebsiella pneumoniae ATCC 33495; assay: MIC determination by microbroth dilution; format: cell-based; conditions: ATCC33495
E. coli K12 = assay: MIC determination by microbroth dilution; format: cell-based, Escherichia coli; conditions: Escherichia coli, K12

Row | Structure (SMILES) | MIC (M. tuberculosis H37Rv) | MIC [1] | MIC (E. faecalis ATCC 33186) | MIC [2] | MIC [3] | MIC (B. anthracis Sterne 34F2) | MIC [4] | MIC [5] | MIC [6] | MIC (P. aeruginosa PAO1) | MIC [7] | MIC (E. coli K12 ΔtolC) | MIC [8] | MIC [9] | MIC (E. coli K12)
1 | CN[C@@H]1[C@H](O)[C@H](NC)C2O[C@]3(O)C(OC2[C@H]1O)O[C@H](C)C[C@H]3NCCc1ccccc1 (stereo partly drawn) [Compound 1450, 3′-Dihydro-3′-deoxy-4(R)-2-phenylethylamino spectinomycin Trihydrochloride] | 200 mg/L | – | – | – | – | – | – | – | – | – | – | – | – | – | –
2 | CN[C@@H]1[C@H](O)[C@H](NC)C2O[C@]3(O)C(OC2[C@H]1O)O[C@H](C)C[C@H]3NC(=O)Cc1ccc(-c2ccccc2)cn1 (stereo partly drawn) [Compound 1519, 3′-Dihydro-3′-deoxy-4(R)-(5-phenylpyridin-2-yl)acetylamino spectinomycin trihydrobromide] | 3.12 mg/L | 3.1 mg/L | 25 mg/L | > 200 mg/L | 12.5 mg/L | > 200 mg/L | > 200 mg/L | 100 mg/L | > 200 mg/L | > 200 mg/L | > 200 mg/L | 12.5 mg/L | > 200 mg/L | > 200 mg/L | > 200 mg/L
3 | CC[C@H](C)[C@H](N)C(=O)N[C@@H]1C[C@@H](C)OC2OC3C(O[C@]21O)[C@@H](NC)[C@@H](O)[C@@H](NC)[C@@H]3O (stereo partly drawn) [Compound 1485, 3′-Dihydro-3′-deoxy-4(R)-[(2S,3S)-2-amino,3-methyl]pentanoylamino spectinomycin Trihydrochloride] | 200 mg/L | 25 mg/L | > 200 mg/L | > 200 mg/L | 25 mg/L | > 200 mg/L | > 200 mg/L | > 200 mg/L | > 200 mg/L | > 200 mg/L | > 200 mg/L | > 200 mg/L | > 200 mg/L | > 200 mg/L | –
4 | CN[C@@H]1[C@H](O)[C@H](NC)C2O[C@]3(O)C(OC2[C@H]1O)O[C@H](C)C[C@H]3NC(=O)[C@@H](O)CCN (stereo partly drawn) [Compound 1493, 3′-Dihydro-3′-deoxy-4(R)-(2(S)-4-amino-2-hydroxy)butanoylamino spectinomycin trihydrochloride] | > 200 mg/L | 50 mg/L | > 200 mg/L | > 200 mg/L | 50 mg/L | > 200 mg/L | > 200 mg/L | > 200 mg/L | > 200 mg/L | > 200 mg/L | 100 mg/L | 25 mg/L | > 200 mg/L | > 200 mg/L | 100 mg/L
5 | CN[C@@H]1[C@H](O)[C@H](NC)C2O[C@]3(O)C(OC2[C@H]1O)O[C@H](C)C[C@H]3NC(=O)CN (stereo partly drawn) [Compound 1470, 3′-Dihydro-3′-deoxy-4(R)-(2-amino)acetylamino spectinomycin Trihydrochloride] | 200 mg/L | > 200 mg/L | > 200 mg/L | > 200 mg/L | > 200 mg/L | > 200 mg/L | > 200 mg/L | > 200 mg/L | > 200 mg/L | > 200 mg/L | > 200 mg/L | > 200 mg/L | > 200 mg/L | > 200 mg/L | > 200 mg/L
6 | CN[C@@H]1[C@H](O)[C@H](NC)C2O[C@]3(O)C(OC2[C@H]1O)O[C@H](C)C[C@H]3NC(=O)CCN (stereo partly drawn) [Compound 1469, 3′-Dihydro-3′-deoxy-4(R)-(3-amino)propanoylamino spectinomycin Trihydrochloride] | 200 mg/L | 50 mg/L | 50 mg/L | 25 mg/L | 100 mg/L | 50 mg/L | > 200 mg/L | > 200 mg/L | > 200 mg/L | > 200 mg/L | > 200 mg/L | 100 mg/L | > 200 mg/L | > 200 mg/L | > 200 mg/L
7 | CN[C@@H]1[C@H](O)[C@H](NC)C2O[C@]3(O)C(OC2[C@H]1O)O[C@H](C)C[C@H]3NC(=O)[C@@H](N)C(C)C (stereo partly drawn) [Compound 1486, 3′-Dihydro-3′-deoxy-4(R)-[2(S)-amino,3-methyl]butanoylamino spectinomycin Trihydrochloride] | 200 mg/L | > 200 mg/L | > 200 mg/L | > 200 mg/L | 50 mg/L | > 200 mg/L | > 200 mg/L | > 200 mg/L | > 200 mg/L | > 200 mg/L | > 200 mg/L | > 200 mg/L | > 200 mg/L | > 200 mg/L | –
